Data set [1] is classed as in vitro ADME, human. From the text:
The mobility of LE nanoparticles from the produced nanosuspensions in fresh undiluted human cervicovaginal mucus (CVM) was characterized by dark-field microscopy using a CytoViva® High Resolution Illumination System which allows visualization of fluorescent and non-fluorescent nano-sized objects. […] Mobility of particles in the movies was scored on a scale from 0 to 3 in order of increasing mobility, in a single-blind experiment by independent observers. The scoring criterion is as follows: 0-0.5 immobile; 0.51-1.5 slightly mobile; 1.51-2.5 moderately mobile; and 2.51-3.0 very mobile.

The nature of data set [2]: Multiple particle tracking of pyrene nanoparticles milled with PVAs and other surface-altering agents in CVM. As to the method:
An aqueous dispersion containing pyrene and one of the surface-altering agents listed above was stirred with milling media until particle size was reduced below 500 nm (as measured by dynamic light scattering).
Prior to quantifying mobility of pyrene particles, their spatial distribution in the mucus sample was assessed visually.

A short description of data set [3]: Multiple particle tracking of pyrene/stabilizer nanoparticles in CVM. On the procedure:
Prior to quantifying mobility of the produced pyrene nanoparticles, their spatial distribution in the mucus sample was assessed by microscopy at low magnifications (10×, 40×).
CVM was collected by inserting a Softcup® menstrual collection cup into the vaginal tract as described by the product literature for between 30 seconds and 2 minutes. After removal the CVM was then collected from the Softcup® by gentle centrifugation at ˜30×G to ˜120×G in a 50 mL centrifuge tube. In Example 1, CVM was used undiluted and fresh (stored for no longer than 7 days under refrigerated conditions). Barrier and transport of all CVM samples used in Example 1 were verified with negative (200 nm carboxylated polystyrene particles) and positive (200 nm polystyrene particles modified with PEG 5K) controls. In Example 2, CVM was lyophilized and reconstituted. In Example 2, mucus was frozen at −50° C. and then lyophilized to dryness. Samples were then stored at −50° C. Before use, the mucus was reconstituted by grinding the solid into a fine powder using a mortar and pestle followed by water addition to a final volume equal to the original volume to 2 times the original volume. The reconstituted mucus was then incubated at 4° C. for 12 hours and used as described in Example 2. Barrier and transport of all CVM samples used in Example 2 were verified with negative (200 nm carboxylated polystyrene particles) and positive (F127 coated 200 nm polystyrene particles) controls.

Data set [4] relates to vascular leakage after intravitreal injection of VEGF. Description: Rabbit VEGF-challenge model (fluorescein angiography). In kind it is in vivo, Dutch belted rabbits. The conditions noted are these: day 6; VEGF intravitreal on day 3; 5% axitinib-MPP 50 μL every 4 hours days 1-6, or one intravitreal Avastin on day 1. The source says:
On day 3, the rabbits received an intravitreal injection of VEGF. On day 6, the rabbits were accessed for leakage via fluorescein angiography.
In this model, Dutch belted rabbits were given an intravitreal injection of VEGF to stimulate vascular growth. Fluorescein angiography was used to determine the degree to which the rabbits developed abnormal vascular and leakage.

[5] abbreviates: pyrene nanoparticles milled with the surface-altering agent, in CVM.

Read-outs that look alike come from different tables or passages of the source. Bounds are passed on as bounds.

For Pluronic P123, the “mobility score in CVM” value in data set [1] is listed as 1.51.-2.50.

With `CCCCCCCCCCCCCCCC[N+](C)(C)C` [CTAB, Cetytrimethylammonium bromide], the “Sample (relative) <Vmean>rel” value in data set [2] (setting [5]) is on record as −0.02; in data set [3] (pyrene/stabilizer nanoparticles in CVM, relative to negative and positive controls), −0.02. Moreover, the “Sample <Vmean>” value in data set [2] (setting [5]) was 0.32 um/s. In addition, the “Sample <Vmean> (ensemble-average velocity)” value in data set [3] (pyrene/stabilizer nanoparticles in CVM) is 0.32 um/s.

As to Tween 80, in data set [2], the “Sample (relative) <Vmean>rel” value is listed as 0.17 and the “Sample <Vmean>” value is 0.94 um/s. In addition, in data set [3], the “Sample (relative) <Vmean>rel” value is 0.17 and the “Sample <Vmean> (ensemble-average velocity)” value was 0.94 um/s.

For Pluronic F127, the “mobility score in CVM” value in data set [1] is on record as above 2.51.

With “Avastin®: positive control, one intravitreal injection; commonly used off-label to treat AMD”, the “retinal vessel growth and leakage (fluorescein angiography)” value in data set [4] is given as “no change in retinal vasculature”.

Pluronic F68: the “mobility score in CVM” value in data set [1] was below 0.50.

For the molecule Tyloxapol, in data set [2], the “Sample (relative) <Vmean>rel” value is −0.02 and the “Sample <Vmean>” value was found to be 0.42 um/s. For the same molecule, in data set [3], the “Sample (relative) <Vmean>rel” value is −0.02 and the “Sample <Vmean> (ensemble-average velocity)” value was 0.42 um/s.

For the origin of these results see patent US11219596B2, “Compositions and methods for ophthalmic and/or other applications” (The Johns Hopkins University, priority 2012, dated 2022).
